From US8138357B2, “Compounds and their salts specific to the PPAR receptors and the EGF receptors and their use in the medical field” (Giuliani International Limited, priority 2005, dated 2012)
Entries after “also recorded” stand apart in the source; their conditions may differ.

What was measured:
DLD-1 cells = test: Cell growth by colorimetric BrdU incorporation assay, DLD-1; type: cell-based; settings: Homo sapiens, 48 hours
Experimental: (§1) HT-29 and DLD-1 cells were cultured in McCoy and RPMI1640 media respectively, supplemented with 10% fetal bovine serum (FBS), 1% penicillin/streptomycin (P/S) and 50 μg/ml gentamycin. HT-115 were cultured in DMEM medium supplemented with 15% FBS and 1% P/S. Cells were maintained in a humidified incubator at 37° C., in the presence of 5% CO2.
(§2) For cell growth assays, single-cell suspensions were plated at 2×10^3 cells/well (4×10^3 cells/well for HT115) in 96-well culture dishes in medium containing 0.5% FBS and allowed to adhere. The non-adherent cells were then removed, and fresh medium containing 0.5% FBS was added into each well. Cells were cultured in the presence or absence of the specified substances. Each substance was dissolved as a 25 mM stock solution in culture medium containing 0.5% FBS, and the pH of each stock solution was adjusted to 7.4, if necessary, with NaOH. Substances were used at a final concentration ranging from 0.5 to 10 mM. Cell proliferation was determined by measuring the incorporation of 5-bromo-2′-deoxyuridine (BrdU) into DNA using a commercially available cell proliferation kit (Roche Diagnostics™, Monza, Italy). BrdU was added to the cell cultures during the last 6 hours of incubation, and the level of BrdU-positive cells was assessed after 48 h culture by enzyme-linked immunosorbent assay (ELISA).
(§3) Optical density (OD) was determined at 450 nm using an ELISA reader. Experiments were performed in triplicate and the results are reported as the mean±standard deviation (SD).

HT-29 STD cells [1] = test: Detection of apoptosis by TUNEL assay; type: cell-based, human; settings: 30 mM, 24 h
Experimental: After 24 h of culture, HT-29 STD cells were treated during 24 h with the new molecules 13, 14, 17, 26 and 31, at a concentration of 30 mM. […] The pH of the drug solutions was adjusted to 7.4 with NaOH. Cells undergoing apoptosis were identified by enzymatic labelling of DNA strands using a terminal transferase dUTP nick end labelling assay (TUNEL assay, Roche Diagnostics™, Meylan, France). Counts of at least 500 cells/sample were systematically performed blindly in one experiment. The results were expressed as the mean±SEM of the number of stained cells.

HT-29 STD cells [2] = test: Cell proliferation by nuclear Ki-67 immunostaining; type: cell-based; settings: Homo sapiens, 30 mM, 24 h, compared to untreated cells, read-out: inhibition of cell proliferation (Ki-67 staining)
Experimental: After 24 h of culture, HT-29 STD cells were treated during 24 h with the new molecules 13, 14, 17, 26 and 31, at 30 mM. […] The pH of the drug solutions was adjusted to 7.4 with NaOH. Cells were fixed in PFA 4%, permeabilized in PBS containing 0.1% Triton X-100™ at 4° C. and then incubated with goat normal serum and blocking buffer (1% BSA in PBS) to minimize non-specific adsorption of the antibody. Cell proliferation was assessed by a nuclear Ki-67 staining using mouse monoclonal primary antibody directed against Ki-67 (dilution 1:50 overnight; ZYMED™ Clinisciences™, Montrouge, France). […] Nuclei were stained with Hoescht 33342 solution (0.125 mg/mL) (Sigma-Aldrich™) and visualized under a fluorescence microscope (Leica™, Bensheim, Germany). Negative controls consisted of staining with a non-specific mouse serum instead of the specific antibody. Counts of at least 500 cells/sample were systematically performed blindly in one experiment. The results were expressed as the mean±SEM of the number of stained cells.

PPARγ [3] = target: T1, PPARγ (Homo sapiens, UniProt P37231); test: PPARγ activation, PPRE (2XCYP) luciferase reporter in transfected HT-29 STD cells (Example 8); type: cell-based; settings: 30 mM, 24 hours, HT-29 STD transfected with 2XCYP
T1 construct: HT-29 STD cells were transiently transfected using the Effectene™ transfection reagent; endogenous in cells; host or cells: HT-29 STD (human colon carcinoma)
T1 sequence (P37231 1-505): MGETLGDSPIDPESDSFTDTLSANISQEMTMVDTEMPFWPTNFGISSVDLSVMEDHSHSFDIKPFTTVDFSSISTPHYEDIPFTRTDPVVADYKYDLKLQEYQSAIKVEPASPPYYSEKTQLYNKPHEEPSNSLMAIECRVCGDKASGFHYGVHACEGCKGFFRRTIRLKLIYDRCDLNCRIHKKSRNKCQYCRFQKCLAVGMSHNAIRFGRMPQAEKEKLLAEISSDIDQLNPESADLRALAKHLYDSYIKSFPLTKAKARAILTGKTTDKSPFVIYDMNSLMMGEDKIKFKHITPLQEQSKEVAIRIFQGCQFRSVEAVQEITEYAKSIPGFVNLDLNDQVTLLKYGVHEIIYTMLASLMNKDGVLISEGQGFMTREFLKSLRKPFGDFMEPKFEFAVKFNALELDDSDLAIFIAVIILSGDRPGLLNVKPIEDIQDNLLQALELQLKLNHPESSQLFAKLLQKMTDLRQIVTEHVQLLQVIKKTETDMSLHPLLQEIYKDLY
Experimental: HT-29 STD cells were transiently transfected using the Effectene™ transfection reagent (Qiagen™) according to instructions from the manufacturer. To test PPARγ activation, we performed transfection with 500 ng of a minimal promoter construct containing two copies of PPRE obtained from the cytochrome p450 4A (2XCYP) (1). The renilla luciferase plasmid ([…]) was also transfected as an internal control for monitoring transfection efficiency and for normalizing the firefly luciferase activity. Transfected cells were left for 48 hours incubation at 37° C. […] The pH of the drug solutions was adjusted to 7.4 with NaOH. Total cell extracts were prepared using the Passive Lysis Buffer (Promega™, Madison, Wis.). Luciferase activity was assayed in 20 μl of the extract using the Promega™ Dual Luciferase assay system according to the manufacturer's protocol. Transfections were assayed in triplicate in at least three separate experiments. The luciferase activity was expressed as fold of the activity obtained in cells treated with the different molecules divided by luciferase activity from non-stimulated cells.

HT-29, HT-115 and DLD-1 = test: Colon cancer cell growth by BrdU assay, three human colon carcinoma cell lines; type: cell-based; settings: final concentration 10 mM, 48 h
Experimental: For this purpose, three human colon carcinoma cell lines (i.e. HT-29, HT-115 and DLD-1) were used. These cell types were selected on the basis of the cyclooxigenase-2 (COX-2) expression. Indeed, HT-115 cells express a biologically active COX-2, HT-29 cells express a non-functional COX-2 isoform, and DLD-1 are COX-2-deficient cells.
as §1, §2, §3

PPARγ [4] = test: PPARγ protein expression by western blot in HT-29 cells; type: cell-based, human; settings: 30 mM, 24 hours, HT-29, relative to β-actin
Experimental: The total proteins were obtained by cell homogenization in an extraction buffer consisting of PBS with 2% Triton™, Phenyl Methyl Sulphonyl Fluoride (PMSF) 100 mM and a classical protease inhibitor cocktail (2). The total proteins were then separated by polyacrylamide gel electrophoresis and electroblotted. Polyvinylidendifluoride (PVDF) membranes were incubated overnight with rabbit polyclonal primary antibody directed against PPARγ (dilution 1/500, TEBU, Le Perray en Yveline, France). β-actin was detected using a rabbit monoclonal primary antibody diluted at 1/10,000 (Sigma). Immunodetection with a secondary peroxidase-conjugated antibody (1/1000, Dako™, Trappes, France) and chemiluminescence was performed according to the manufacturer's protocol (ECL™, Amersham Pharmacia Biotech™, Orsay, France). Optical density values of PPARγ were given for each condition in proportion to the quantity of the internal control β-actin in the same sample (2).

SMILES: CC(C)Oc1ccc(N)cc1C(=O)O [compound 31, 5-amino-2-isopropoxybenzoic acid]
- inhibition at 500 µM (DLD-1 cells; 0.5 mM): 0%
- inhibition at 1000 µM (DLD-1 cells; 1 mM): 0%
- inhibition at 2500 µM (DLD-1 cells; 2.5 mM): 0%
- inhibition at 5000 µM (DLD-1 cells; 5 mM): 8.8%
- inhibition at 10000 µM (DLD-1 cells; 10 mM): 31.7%
- apoptosis, epithelial cells identified by TUNEL (HT-29 STD cells [1]): 80%
- inhibition at 30000 µM (HT-29 STD cells [2]): 67 to 75%
- reporter gene activity, factor of increase relative to untreated cells (PPARγ [3]): two-fold; also recorded: about twice
- cell growth inhibition (HT-29, HT-115 and DLD-1): significantly inhibited cell growth
- induction of PPARγ protein levels quantified by western blot (PPARγ [4]): 2 fold
